Results published in ChEMBL document CHEMBL3044682, “QSAR modeling of bifunctional quinolonyl diketo acid derivatives as integrase inhibitors” (Med Chem Res, 2012).

Target: Human immunodeficiency virus type 1 integrase (Human immunodeficiency virus 1, UniProt Q7ZJM1)
Assay: Inhibition of Human immunodeficiency virus 1 integrase strand transfer activity

Sequence of Human immunodeficiency virus type 1 integrase (Q7ZJM1 whole entry): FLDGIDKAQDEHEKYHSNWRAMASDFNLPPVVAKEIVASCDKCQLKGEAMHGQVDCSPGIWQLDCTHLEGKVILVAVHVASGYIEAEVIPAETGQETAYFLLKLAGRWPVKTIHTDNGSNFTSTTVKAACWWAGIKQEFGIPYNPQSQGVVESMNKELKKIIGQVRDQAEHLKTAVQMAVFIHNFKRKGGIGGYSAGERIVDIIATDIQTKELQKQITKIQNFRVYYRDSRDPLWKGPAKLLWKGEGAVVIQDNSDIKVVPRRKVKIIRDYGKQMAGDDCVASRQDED

Row | Structure (SMILES) | IC50
1 | O=C(O)/C(O)=C/C(=O)c1ccc2c(c1)c(=O)c(C(=O)O)cn2Cc1ccc(F)cc1 [13, RDS-1607] | 1.09 µM
2 | CC[C@@H](CO)n1cc(CO)c(=O)c2cc(Cc3ccccc3F)c(OC)cc21 | 0.0072 µM
3 | Cc1cccc(/C=C/c2ccc3ccc(C(=O)O)c(O)c3n2)c1C | 0.0606 µM
4 | O=C(O)/C(O)=C/C(=O)c1ccc2[nH]cc(C(=O)/C=C(\O)C(=O)O)c(=O)c2c1 | 0.43 µM
5 | O=C(O)/C(O)=C/C(=O)c1cn(Cc2cccc(F)c2)c2ccccc2c1=O | 0.0313 µM
6 | O=C(O)/C(O)=C/C(=O)c1ccc2c(c1)c(=O)c(C(=O)/C=C(\O)C(=O)O)cn2-c1ccccc1 | 0.012 µM
7 | CCOC(=O)/C(O)=C/C(=O)c1cn(Cc2cccc(F)c2)c2ccccc2c1=O [RDS-1624] | 0.326 µM
